Source: US20260232763A1 (Kadmon Corporation, LLC, priority 2023, published 2026)
Like-named read-outs stand apart in the source and are kept apart here.

Legend:
[1] = Example 3 Part 2 (Regimen B) dabigatran etexilate + belumosudil plasma PK; assay type: in vivo, human; conditions: for half-life: read-out: T1/2, geometric mean (converted)
Protocol: The ratio was defined as test/reference. In addition, the intraparticipant variability were also presented. […] No formal interim analyses were performed for this study.

OATP1B1 = target: T1, OATP1B1 (Homo sapiens, UniProt Q9Y6L6); conditions: in vitro, at clinically relevant concentrations; cited from earlier work
T1 sequence (Q9Y6L6 1-691): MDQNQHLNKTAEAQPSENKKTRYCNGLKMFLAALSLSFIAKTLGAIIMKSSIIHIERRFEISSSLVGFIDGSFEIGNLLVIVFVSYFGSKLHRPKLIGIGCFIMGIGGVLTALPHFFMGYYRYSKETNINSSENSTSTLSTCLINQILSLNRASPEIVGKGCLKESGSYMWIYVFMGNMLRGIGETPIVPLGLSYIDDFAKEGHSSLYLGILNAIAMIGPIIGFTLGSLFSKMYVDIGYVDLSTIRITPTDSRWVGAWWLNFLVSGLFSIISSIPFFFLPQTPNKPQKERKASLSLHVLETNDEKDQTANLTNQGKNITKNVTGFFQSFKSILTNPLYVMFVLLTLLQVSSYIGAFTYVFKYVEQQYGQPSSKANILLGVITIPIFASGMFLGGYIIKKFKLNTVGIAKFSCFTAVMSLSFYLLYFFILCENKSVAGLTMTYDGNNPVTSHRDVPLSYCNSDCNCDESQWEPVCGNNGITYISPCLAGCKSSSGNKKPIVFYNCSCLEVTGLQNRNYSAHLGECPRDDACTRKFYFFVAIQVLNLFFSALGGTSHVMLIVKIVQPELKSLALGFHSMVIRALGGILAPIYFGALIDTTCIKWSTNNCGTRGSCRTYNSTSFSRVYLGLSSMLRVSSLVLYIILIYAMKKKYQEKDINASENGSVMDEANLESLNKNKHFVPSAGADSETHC

UGT1A9 = target: T2, UGT1A9 (Homo sapiens, UniProt O60656); conditions: in vitro; cited from earlier work
T2 sequence (O60656 26-530): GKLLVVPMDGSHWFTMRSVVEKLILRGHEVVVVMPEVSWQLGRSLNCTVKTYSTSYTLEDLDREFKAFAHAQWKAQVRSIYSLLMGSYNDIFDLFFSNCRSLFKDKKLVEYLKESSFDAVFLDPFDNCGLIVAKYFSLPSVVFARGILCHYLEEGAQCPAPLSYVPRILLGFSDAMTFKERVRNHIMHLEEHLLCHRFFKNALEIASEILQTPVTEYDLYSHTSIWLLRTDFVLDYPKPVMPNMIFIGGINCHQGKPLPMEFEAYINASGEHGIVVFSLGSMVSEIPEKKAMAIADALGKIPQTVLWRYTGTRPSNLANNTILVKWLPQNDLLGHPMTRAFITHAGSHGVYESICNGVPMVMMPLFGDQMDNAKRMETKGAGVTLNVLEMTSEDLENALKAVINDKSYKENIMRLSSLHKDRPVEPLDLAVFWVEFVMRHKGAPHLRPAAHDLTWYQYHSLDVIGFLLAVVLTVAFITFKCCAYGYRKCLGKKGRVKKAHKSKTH

clinical = conditions: male, human, in vivo
Protocol: On Day 10, the victim and perpetrator IMPs were administered simultaneously.
On the evening before each dose, participants were provided with a light snack and were required to fast from all food and drink (except water) for a minimum of 10 hours until the following morning. All study interventions were administered in the fed state, following completion of a standard breakfast (with dosing planned to occur 30 minutes after the start of the breakfast).
The PK parameters underwent a natural logarithmic transformation and were analyzed using a mixed effect modelling technique. Adjusted geometric mean ratios and 90% confidence intervals (CIs) of the ratios were obtained for each comparison. The ratio was defined as test/reference. In addition, the intraparticipant variability were also presented. […] No formal interim analyses were performed for this study.

[2] = test system: human […]1-acid glycoprotein; conditions: in vitro; cited from earlier work
CYP1A2 = target: T3, CYP1A2 (Homo sapiens, UniProt P05177); conditions: in vitro; cited from earlier work
T3 sequence (P05177 1-516): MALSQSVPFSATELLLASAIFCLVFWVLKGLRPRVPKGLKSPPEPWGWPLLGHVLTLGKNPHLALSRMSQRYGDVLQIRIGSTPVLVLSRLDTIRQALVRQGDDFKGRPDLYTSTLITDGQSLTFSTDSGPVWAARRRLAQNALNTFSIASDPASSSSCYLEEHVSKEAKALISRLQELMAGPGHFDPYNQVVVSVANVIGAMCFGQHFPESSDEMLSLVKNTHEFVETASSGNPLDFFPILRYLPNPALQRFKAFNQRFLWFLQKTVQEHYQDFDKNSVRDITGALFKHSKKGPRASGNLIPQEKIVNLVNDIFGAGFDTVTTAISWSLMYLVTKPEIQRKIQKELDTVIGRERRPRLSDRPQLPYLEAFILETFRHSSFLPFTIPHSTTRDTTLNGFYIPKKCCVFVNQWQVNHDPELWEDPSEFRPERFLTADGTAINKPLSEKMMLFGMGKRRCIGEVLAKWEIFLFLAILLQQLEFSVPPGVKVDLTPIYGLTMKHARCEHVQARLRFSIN

pregnant rabbits = conditions: cited from earlier work
[3] = healthy subjects, cited from earlier work
rats = conditions: cited from earlier work
CYP3A4 = CYP3A4 (Homo sapiens, UniProt P08684); assay: in vitro metabolism; assay type: in vitro ADME; conditions: in vitro assessments
[4] = test system: bacterial mutagenicity (Ames); conditions: cited from earlier work
[5] = test system: human peripheral blood lymphocytes (HPBL); conditions: chromosome aberration; cited from earlier work
[6] = Part 2, Belumosudil alone (Day 5), 200 mg
[7] = Part 2, Dabigatran etexilate + belumosudil (Day 12), 200 mg QD
[8] = single oral dose of radiolabeled belumosudil

CYP3A4, sequence (P08684 whole entry): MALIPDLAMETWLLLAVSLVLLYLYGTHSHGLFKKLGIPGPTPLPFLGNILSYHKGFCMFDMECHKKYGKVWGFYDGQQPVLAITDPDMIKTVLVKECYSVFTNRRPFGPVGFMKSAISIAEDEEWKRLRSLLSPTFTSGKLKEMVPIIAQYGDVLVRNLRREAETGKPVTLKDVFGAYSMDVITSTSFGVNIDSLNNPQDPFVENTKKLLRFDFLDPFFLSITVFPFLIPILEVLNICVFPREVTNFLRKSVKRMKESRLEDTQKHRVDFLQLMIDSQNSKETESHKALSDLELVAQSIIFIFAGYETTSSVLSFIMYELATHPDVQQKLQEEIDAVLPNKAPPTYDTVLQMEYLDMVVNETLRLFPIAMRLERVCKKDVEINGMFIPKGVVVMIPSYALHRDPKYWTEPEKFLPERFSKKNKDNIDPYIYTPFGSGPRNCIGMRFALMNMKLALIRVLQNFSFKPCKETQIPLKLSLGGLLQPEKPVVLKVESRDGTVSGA

## CC(C)NC(=O)COc1cccc(-c2nc(Nc3ccc4[nH]ncc4c3)c3ccccc3n2)c1 [belumosudil, 2-{3-[4-(1H-indazol-5-ylamino)-2-quinazolinyl]phenoxy}-N-(propan-2-yl) acetamide]
[1]; [6]
  AUC(0-tau), geometric mean: 8490 ng·h/mL
  Cmax, geometric mean: 1710 ng/mL
  T1/2, geometric mean: 6.199 h
[1]; [7]
  AUC(0-last), geometric mean: 12 000 ng · h/mL
  Cmax, geometric mean: 2180 ng/mL
  T1/2, geometric mean: 10.371 h
[1]; male, human, plasma, oral, 200 mg QD, read-out: AUC(0-tau), geometric mean
  AUC: 11000 ng·h/mL
[1]; male, human, plasma, oral, 200 mg, Part 2, Belumosudil alone (Day 5), 200 mg
  half-life: ~6 h
[1]; male, human, plasma, oral, 200 mg, Part 2, Dabigatran etexilate + belumosudil (Day 12), 200 mg QD
  half-life: ~10 h
[1]; male, human, plasma, oral, 200 mg, read-out: median Tmax
  Tmax: 1.5 to 2 h
OATP1B1
  OATP1B1 inhibition: inhibits
UGT1A9
  UGT1A9 inhibition: inhibitor
clinical
  Tmax: 1.5 to 3 h
  increase of exposures (Cmax and AUC) following multiple dosing: 1.30-1.49 fold
clinical; 200 mg
  AUC(0-last), geometric mean: 9200 ng·h/mL
  AUC(0-tau), geometric mean: 9330 ng·h/mL
[2]
  binding to human […]1-acid glycoprotein: 98.6%
CYP1A2
  CYP1A2 inhibition: inhibitor
Pregnant rabbits; pregnant rabbits, period of organogenesis
  maternal exposures (AUC) with adverse developmental outcomes, times the human exposure (AUC) at the recommended dose: ≥ 0.07 times
Pregnant rabbits; rabbits, oral
  dose with embryo-fetal effects: ≥ 50 mg/kg/day
  dose with maternal toxicity (body weight loss and mortality): ≥ 125 mg/kg/day
[3]; single dose
  AUC increase with high-fat and high-calorie meal compared to fasted state: 2 times
  Cmax increase with high-fat and high-calorie meal compared to fasted state: 2.2 times
[3]; [8]
  radioactivity recovered in feces: 85%
  radioactivity recovered in feces as unchanged: 30%
  radioactivity recovered in urine: less than 5%
rats
  dose with decreased follicular development in ovaries: 275 mg/kg/day
CYP3A4
  metabolism: primarily dependent on cytochrome P450 CYP3A4 activity
[4]
  genotoxicity: not genotoxic
[5]
  genotoxicity: not genotoxic
